# pIC50: −log10 of the molar value.
# Target: JNK3 (Homo sapiens, UniProt P53779)
# Test: JNK3 SPA assay
# Assay type: biochemical
# Conditions: 3.33 μM ATP, GST-c-Jun substrate; read-out: IC50 against JNK3
# Method: JNK1, JNK2, JNK3—SPA Assay
# JNK1, JNK2, JNK3—SPA Assay • 1. Compound is dissolved in DMSO to a convenient concentration and this is diluted in 10% DMSO to a five times concentrate of the desired starting concentration (frequently 1:100). • 2. 10 μl of 500 mM EDTA is added to alternative wells of the Opti-plate row, which will receive kinase reaction plus DMSO. This creates the negative control. • 3. For the JNK2 and JNK3 assay, compounds are prepared in six 2-fold dilutions with water and each concentration is tested in duplicate. For the JNK1 assay compounds are prepared in four 5-fold dilutions with water which are tested in triplicate. Controls are treated identically. • 4. 20 μl per well of each compound concentration is transferred to an Opti-plate, in duplicate. • 5. 30 μl (JNK2/3 SPA) or 50 μl (JNK1 SPA) of substrate solution (25 mM HEPES pH 7.5, 10 mM magnesium acetate with 3.33 μM ATP (JNK2/3) or 2 μM ATP (JNK1), approximately 7.5 kBq [γ-^33P] ATP, GST-c-Jun, in water) is added to each well. • 6. 50 μl (JNK2/3 SPA) or 30 μl (JNK1 SPA) of kinase solution (JNK in 25 mM HEPES pH 7.5, 10 mM Mg Acetate) is added to each well.
# • 7. The plate is incubated for 30 minutes at room temperature. • 8. 100 μl of bead/stop solution is added to each well (5 mg/ml glutathione-PVT-SPA beads, 40 mM ATP in PBS). • 9. Plates are sealed and incubated for 30 minutes at room temperature, centrifuged for 10 minutes at 2500 g and counted. • 10. The IC50 values are calculated as the concentration of the compound being tested at which the phosphorylation of c-Jun is decreased to 50% of the control value.
# Sequence of JNK3 (P53779 whole entry, species assumed): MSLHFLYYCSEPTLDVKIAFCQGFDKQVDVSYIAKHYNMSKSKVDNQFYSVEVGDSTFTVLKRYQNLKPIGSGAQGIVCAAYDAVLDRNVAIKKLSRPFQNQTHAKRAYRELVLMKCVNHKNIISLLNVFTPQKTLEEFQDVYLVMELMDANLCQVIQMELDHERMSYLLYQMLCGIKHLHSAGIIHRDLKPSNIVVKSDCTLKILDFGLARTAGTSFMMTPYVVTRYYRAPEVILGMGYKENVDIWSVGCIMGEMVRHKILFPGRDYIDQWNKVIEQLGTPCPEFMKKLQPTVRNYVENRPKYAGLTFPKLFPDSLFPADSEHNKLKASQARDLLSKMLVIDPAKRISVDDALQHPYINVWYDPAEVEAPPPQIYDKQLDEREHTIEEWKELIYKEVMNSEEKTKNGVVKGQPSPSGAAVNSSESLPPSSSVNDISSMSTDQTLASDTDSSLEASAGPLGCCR
row,SMILES,pIC50
1,"CCOCCN(CC)[C@H]1CC[C@H](c2cnc3[nH]cc(-c4cnn(C)c4)c3c2)CC1 [Compound I-107, (1r,4r)-N-(2-ethoxyethyl)-N-ethyl-4-(3-(1-methyl-1H-pyrazol-4-yl)-1H-pyrrolo[2,3-b]pyridin-5-yl)cyclohexanamine]",6.54
2,"CCOCCN(CC)[C@H]1CC[C@@H](c2cnc3[nH]cc(-c4cnn(C)c4)c3c2)CC1 [Compound I-108, (1s,4s)-N-(2-ethoxyethyl)-N-ethyl-4-(3-(1-methyl-1H-pyrazol-4-yl)-1H-pyrrolo[2,3-b]pyridin-5-yl)cyclohexanamine]",6.69
3,"CCN(C)[C@H]1CC[C@H](c2cnc3[nH]cc(-c4cnn(C)c4)c3c2)CC1 [Compound I-109, (1r,4r)-N-ethyl-N-methyl-4-(3-(1-methyl-1H-pyrazol-4-yl)-1H-pyrrolo[2,3-b]pyridin-5-yl)cyclohexanamine]",6.52
4,"CCN(C)[C@H]1CC[C@@H](c2cnc3[nH]cc(-c4cnn(C)c4)c3c2)CC1 [Compound I-110, (1s,4s)-N-ethyl-N-methyl-4-(3-(1-methyl-1H-pyrazol-4-yl)-1H-pyrrolo[2,3-b]pyridin-5-yl)cyclohexanamine]",6.45
5,"COCCN[C@H]1CC[C@H](c2cnc3[nH]cc(-c4cnn(C)c4)c3c2)CC1 [Compound I-111, (1r,4r)-N-(2-methoxyethyl)-4-(3-(1-methyl-1H-pyrazol-4-yl)-1H-pyrrolo[2,3-b]pyridin-5-yl)cyclohexanamine]",6.58
6,"CCCN(CC)[C@H]1CC[C@H](c2cnc3[nH]cc(-c4cnn(C)c4)c3c2)CC1 [Compound I-113, (1r,4r)-N-ethyl-4-(3-(1-methyl-1H-pyrazol-4-yl)-1H-pyrrolo[2,3-b]pyridin-5-yl)-N-propylcyclohexanamine]",6.50
7,"CCCN(CC)[C@H]1CC[C@@H](c2cnc3[nH]cc(-c4cnn(C)c4)c3c2)CC1 [Compound I-114, (1s,4s)-N-ethyl-4-(3-(1-methyl-1H-pyrazol-4-yl)-1H-pyrrolo[2,3-b]pyridin-5-yl)-N-propylcyclohexanamine]",6.65
8,"CCCN(C)[C@H]1CC[C@H](c2cnc3[nH]cc(-c4cnn(C)c4)c3c2)CC1 [Compound I-115, (1r,4r)-N-methyl-4-(3-(1-methyl-1H-pyrazol-4-yl)-1H-pyrrolo[2,3-b]pyridin-5-yl)-N-propylcyclohexanamine]",6.46
9,"CCCN(C)[C@H]1CC[C@@H](c2cnc3[nH]cc(-c4cnn(C)c4)c3c2)CC1 [Compound I-116, (1s,4s)-N-methyl-4-(3-(1-methyl-1H-pyrazol-4-yl)-1H-pyrrolo[2,3-b]pyridin-5-yl)-N-propylcyclohexanamine]",6.51
10,"COCCN(C)[C@H]1CC[C@H](c2cnc3[nH]cc(-c4cnn(C)c4)c3c2)CC1 [Compound I-117, (1r,4r)-N-(2-methoxyethyl)-N-methyl-4-(3-(1-methyl-1H-pyrazol-4-yl)-1H-pyrrolo[2,3-b]pyridin-5-yl)cyclohexanamine]",6.54
11,"COCCN(C)[C@H]1CC[C@@H](c2cnc3[nH]cc(-c4cnn(C)c4)c3c2)CC1 [Compound I-118, (1s,4s)-N-(2-methoxyethyl)-N-methyl-4-(3-(1-methyl-1H-pyrazol-4-yl)-1H-pyrrolo[2,3-b]pyridin-5-yl)cyclohexanamine]",6.59
12,"CCOCCN[C@H]1CC[C@H](c2cnc3[nH]cc(-c4cnn(C)c4)c3c2)CC1 [Compound I-119, (1r,4r)-N-(2-ethoxyethyl)-4-(3-(1-methyl-1H-pyrazol-4-yl)-1H-pyrrolo[2,3-b]pyridin-5-yl)cyclohexanamine]",6.59
13,"CCCN(CCOC)[C@H]1CC[C@H](c2cnc3[nH]cc(-c4cnn(C)c4)c3c2)CC1 [Compound I-121, (1r,4r)-N-(2-methoxyethyl)-4-(3-(1-methyl-1H-pyrazol-4-yl)-1H-pyrrolo[2,3-b]pyridin-5-yl)-N-propylcyclohexanamine]",6.44
14,"CCCN(CCOC)[C@H]1CC[C@@H](c2cnc3[nH]cc(-c4cnn(C)c4)c3c2)CC1 [Compound I-122, (1s,4s)-N-(2-methoxyethyl)-4-(3-(1-methyl-1H-pyrazol-4-yl)-1H-pyrrolo[2,3-b]pyridin-5-yl)-N-propylcyclohexanamine]",6.53
15,"CCN(CCOC)[C@H]1CC[C@H](c2cnc3[nH]cc(-c4cnn(C)c4)c3c2)CC1 [Compound I-123, (1r,4r)-N-ethyl-N-(2-methoxyethyl)-4-(3-(1-methyl-1H-pyrazol-4-yl)-1H-pyrrolo[2,3-b]pyridin-5-yl)cyclohexanamine]",6.49
16,"CCN(CCOC)[C@H]1CC[C@@H](c2cnc3[nH]cc(-c4cnn(C)c4)c3c2)CC1 [Compound I-124, (1s,4s)-N-ethyl-N-(2-methoxyethyl)-4-(3-(1-methyl-1H-pyrazol-4-yl)-1H-pyrrolo[2,3-b]pyridin-5-yl)cyclohexanamine]",6.59

row,SMILES,pIC50
1,"CCCN(CCO)[C@H]1CC[C@H](c2cnc3[nH]cc(-c4cnn(C)c4)c3c2)CC1 [Compound I-125, 2-(((1r,4r)-4-(3-(1-methyl-1H-pyrazol-4-yl)-1H-pyrrolo[2,3-b]pyridin-5-yl)cyclohexyl)(propyl)amino)ethanol]",6.58
2,"CCCN(CCO)[C@H]1CC[C@@H](c2cnc3[nH]cc(-c4cnn(C)c4)c3c2)CC1 [Compound I-126, 2-(((1s,4s)-4-(3-(1-methyl-1H-pyrazol-4-yl)-1H-pyrrolo[2,3-b]pyridin-5-yl)cyclohexyl)(propyl)amino)ethanol]",6.55
3,"Cn1cc(-c2c[nH]c3ncc([C@H]4CC[C@H](NC5CCOCC5)CC4)cc23)cn1 [Compound I-127, N-((1 r,4r)-4-(3-(1-methyl-1H-pyrazol-4-yl)-1H-pyrrolo[2,3-b]pyridin-5-yl)cyclohexyl)tetrahydro-2H-pyran-4-amine]",6.40
4,"Cn1cc(-c2c[nH]c3ncc([C@H]4CC[C@@H](NC5CCOCC5)CC4)cc23)cn1 [Compound I-128, N-((1s,4s)-4-(3-(1-methyl-1H-pyrazol-4-yl)-1H-pyrrolo[2,3-b]pyridin-5-yl)cyclohexyl)tetrahydro-2H-pyran-4-amine]",6.10
5,"Cn1cc(-c2c[nH]c3ncc([C@H]4CC[C@H](NCCO)CC4)cc23)cn1 [Compound I-129, 2-((1r,4r)-4-(3-(1-methyl-1H-pyrazol-4-yl)-1H-pyrrolo[2,3-b]pyridin-5-yl)cyclohexylamino)ethanol]",6.72
6,"Cn1cc(-c2c[nH]c3ncc([C@H]4CC[C@@H](NCCO)CC4)cc23)cn1 [Compound I-130, 2-((1s,4s)-4-(3-(1-methyl-1H-pyrazol-4-yl)-1H-pyrrolo[2,3-b]pyridin-5-yl)cyclohexylamino)ethanol]",6.16
7,"Cn1cc(-c2c[nH]c3ncc(C4=CC5CC[C@]4(C)C5(C)C)cc23)cn1 [Compound I-138, 3-(1-methyl-1H-pyrazol-4-yl)-5-((1R)-1,7,7-trimethylbicyclo[2.2.1]hept-2-en-2-yl)-1H-pyrrolo[2,3-b]pyridine]",6.83
8,"Cn1cc(-c2c[nH]c3ncc(C4CC5CC4C(CO)C5CO)cc23)cn1 (stereo not shown) [Compound I-140, (5-(3-(1-methyl-1H-pyrazol-4-yl)-1H-pyrrolo[2,3-b]pyridin-5-yl)bicyclo[2.2.1]heptane-2,3-diyl)dimethanol]",7.06
9,"Cn1cc(-c2c[nH]c3ncc(C4CCCC5C4C5(C)C)cc23)cn1 (stereo not shown) [Compound I-142, 5-(7,7-dimethylbicyclo[4.1.0]heptan-2-yl)-3-(1-methyl-1H-pyrazol-4-yl)-1H-pyrrolo[2,3-b]pyridine]",6.81
10,"CN1C2C=C(c3cnc4[nH]cc(-c5cnn(C)c5)c4c3)CC1CC2 (stereo not shown) [Compound I-143, 3-(1-methyl-1H-pyrazol-4-yl)-5-(8-methyl-8-azabicyclo[3.2.1]oct-3-en-3-yl)-1H-pyrrolo[2,3-b]pyridine]",< 6.30
11,"Cn1cc(-c2c[nH]c3ncc(C4=CC5CC(=O)CC(C4)C5)cc23)cn1 (stereo not shown) [Compound I-145, 7-(3-(1-methyl-1H-pyrazol-4-yl)-1H-pyrrolo[2,3-b]pyridin-5-yl)bicyclo[3.3.1]non-6-en-3-one]",6.78
12,"Cn1cc(-c2c[nH]c3ncc(C4=CC5CC(O)CC(C4)C5)cc23)cn1 (stereo not shown) [Compound I-146, 7-(3-(1-methyl-1H-pyrazol-4-yl)-1H-pyrrolo[2,3-b]pyridin-5-yl)bicyclo[3.3.1]non-6-en-3-ol]",6.08
13,"Cn1cc(-c2c[nH]c3ncc(C4=CC5CC(O)CC(C4)C5)cc23)cn1 (stereo not shown) [Compound I-147, 7-(3-(1-methyl-1H-pyrazol-4-yl)-1H-pyrrolo[2,3-b]pyridin-5-yl)bicyclo[3.3.1]non-6-en-3-ol]",< 6.00
14,"CN1CCN(C2CC3C=C(c4cnc5[nH]cc(-c6cnn(C)c6)c5c4)CC(C3)C2)CC1 (stereo not drawn) [Compound I-149, trans-3-(1-methyl-1H-pyrazol-4-yl)-5-(7-(4-methylpiperazin-1-yl)bicyclo[3.3.1]non-2-en-3-yl)-1H-pyrrolo[2,3-b]pyridine]",< 6.30
15,CN1C2CC3CC(C2)C(O)C1(c1cnc2[nH]cc(-c4cnn(C)c4)c2c1)C3 (stereo not shown) [Compound I-153],6.54
